IC50 and wet uterine weight data for 21 molecules are collected here from patent publication US12497386B2, “Estrogen receptor-modulating compounds” (RADIUS PHARMACEUTICALS, INC., priority 2018, dated 2025).

A value given as a limit tells only on which side of the number the result lay.

One test deals with MCF-7 cells. Kind of test: MCF-7 Proliferation Inhibition Assay. The format is cell-based, human. Conditions: Homo sapiens, MCF7, 168 h, 10 pM dose of E2, 7 days incubation, CellTiterGlo viability. On the procedure: Proliferation Assay in MCF-7 and T47D Cells
MCF-7 and T47D cells were stripped for 3 days in phenol red-free RPMI1640 media containing 10% charcoal-stripped fetal bovine serum (CS-FBS) and 1% Penicillin/streptomycin (P/S). Cells (volume of 90 μl/well) were seeded in 96 well plates at a density of 2500 cells/well for MCF-7 cells and 1500 cells/well for T47D cells. On the following day, plates were treated with the test compounds (10× concentration in media, volume of 10 μl/well added) both in the absence and in the presence of two doses of E2 (10 pM and 1 nM). The cells were incubated with test compounds for 7 days. The viability of the cells was assessed using CellTiterGlo (Promega, Cat #G7573) according to the manufacturer's instructions. Growth inhibition curves and IC50 values were calculated using the GraphPadPrism 6.0 software. Data values shown in Table 1 were obtained using the 10 pM dose of E2.
On to `Cc1ccccc1-c1c(F)c2cc(O)ccc2n1Cc1ccc(CCNCCCF)cc1` [Compound D-69, 3-Fluoro-1-(4-(2-((3-fluoropropyl)amino)ethyl)benzyl)-2-(o-tolyl)-1H-indol-5-ol], for which the IC50 is < 1 nM.
Still for that read-out and setting: the result for `Cc1ccccc1-c1c(F)c2cc(O)ccc2n1Cc1ccc(CCNCCF)cc1` [Compound D-70, 3-Fluoro-1-(4-(2-((2-fluoroethyl)amino)ethyl)benzyl)-2-(o-tolyl)-1H-indol-5-ol] reads < 1 nM; that for `CCNCCc1ccc(Cn2c(-c3c(C)cccc3C)c(F)c3cc(O)ccc32)cc1` [Compound D-78, 2-(2,6-Dimethylphenyl)-1-(4-(2-(ethylamino)ethyl)benzyl)-3-fluoro-1H-indol-5-ol], < 1 nM; that for `CCNCCc1ccc(Cn2c(-c3ccccc3C)c(F)c3c4cn[nH]c4ccc32)cc1` [Compound D-85, N-Ethyl-2-(4-((8-fluoro-7-(o-tolyl)pyrrolo[3,2-e]indazol-6(3H)-yl)methyl)phenyl)ethan-1-amine], < 1 nM.
With `CCCNCCc1ccc(Cn2c(-c3ccccc3OC)c(F)c3cc(O)ccc32)cc1` [Compound D-87, 3-Fluoro-2-(2-methoxyphenyl)-1-(4-(2-(propylamino)ethyl)benzyl)-1H-indol-5-ol], the IC50 is < 1 nM.
For `Cc1ccccc1-c1c(F)c2c3cn[nH]c3ccc2n1Cc1ccc(CCNCC2CC2)cc1` [Compound D-88, N-(Cyclopropylmethyl)-2-(4-((8-fluoro-7-(o-tolyl)pyrrolo[3,2-e]indazol-6(3H)-yl)methyl)phenyl)ethan-1-amine], the IC50 is < 1 nM.
For the molecule `Cc1ccccc1-c1c(F)c2c3cn[nH]c3ccc2n1Cc1ccc(CCNC2CCC2)cc1` [Compound D-89, N-(4-((8-Fluoro-7-(o-tolyl)pyrrolo[3,2-e]indazol-6(3H)-yl)methyl)phenethyl)cyclobutanamine], the IC50 is < 1 nM.
Still for that read-out and setting: with `Cc1ccccc1-c1c(F)c2c3cn[nH]c3ccc2n1Cc1ccc(CCNC2CC2)cc1` [Compound D-90, N-(4-((8-Fluoro-7-(o-tolyl)pyrrolo[3,2-e]indazol-6(3H)-yl)methyl)phenethyl)cyclopropanamine] the figure was < 1 nM; with `CCCNCCc1ccc(Cn2c(-c3ccccc3C)c(F)c3c4cn[nH]c4ccc32)cc1` [Compound D-91, N-(4-((8-fluoro-7-(o-tolyl)pyrrolo[3,2-e]indazol-6(3H)-yl)methyl)phenethyl)propan-1-amine], < 1 nM.
`CCCNCCc1ccc(Cn2c(-c3ccc(OC)cc3C)c(F)c3cc(O)ccc32)cc1` [Compound D-96, 3-Fluoro-2-(4-methoxy-2-methylphenyl)-1-(4-(2-(propylamino)ethyl)benzyl)-1H-indol-5-ol]: the IC50 is < 1 nM.
The same measure, in the same setting: the result for `Cc1ccccc1-c1c(F)c2c3cn[nH]c3ccc2n1Cc1ccc(CCNCCF)cc1` [Compound D-101, 2-Fluoro-N-(4-((8-fluoro-7-(o-tolyl)pyrrolo[3,2-e]indazol-6(3H)-yl)methyl)phenethyl)ethan-1-amine] reads < 1 nM; that for `Cc1ccccc1-c1c(F)c2c3cn[nH]c3ccc2n1Cc1ccc(CCNCCCF)cc1` [Compound D-102, 3-Fluoro-N-(4-((8-fluoro-7-(o-tolyl)pyrrolo[3,2-e]indazol-6(3H)-yl)methyl)phenethyl)propan-1-amine], < 1 nM; that for `COc1ccc(-c2c(F)c3cc(O)ccc3n2Cc2ccc(CCNCCF)cc2)c(C)c1` [Compound D-103, 3-Fluoro-1-(4-(2-((2-fluoroethyl)amino)ethyl)benzyl)-2-(4-methoxy-2-methylphenyl)-1H-indol-5-ol], < 1 nM.
Same read-out and setting: with `COc1ccc(-c2c(F)c3cc(O)ccc3n2Cc2ccc(CCNCCCF)cc2)c(C)c1` [Compound D-104, 3-Fluoro-1-(4-(2-((3-fluoropropyl)amino)ethyl)benzyl)-2-(4-methoxy-2-methylphenyl)-1H-indol-5-ol] the figure was < 1 nM; with `CCNCCc1ccc([C@@H]2c3ccc(O)cc3CC[C@@H]2c2ccccc2)cc1` [LA-18, (5R,6S)-5-(4-(2-(Ethylamino)ethyl)phenyl)-6-phenyl-5,6,7,8-tetrahydronaphthalen-2-ol], < 1 nM.
Still for that read-out and setting: with `Oc1ccc2c(c1)CC[C@H](c1ccccc1)[C@@H]2c1ccc(CCNCC2CC2)cc1` [LA-19, (5R,6S)-5-(4-(2-((Cyclopropylmethyl)amino)ethyl)phenyl)-6-phenyl-5,6,7,8-tetrahydronaphthalen-2-ol] the figure was < 1 nM; with `CCNCCc1ccc([C@@H]2c3ccc(O)cc3CC[C@@H]2c2ccccc2C)cc1` [LA-21, (5R,6S)-5-(4-(2-(Ethylamino)ethyl)phenyl)-6-(o-tolyl)-5,6,7,8-tetrahydronaphthalen-2-ol], < 1 nM.
With `Cc1ccccc1[C@H]1CCc2cc(O)ccc2[C@H]1c1ccc(CCNCC2CC2)cc1` [LA-22, (5R,6S)-5-(4-(2-((cyclopropylmethyl)amino)ethyl)phenyl)-6-(o-tolyl)-5,6,7,8-tetrahydronaphthalen-2-ol], the IC50 is < 1 nM.
Consider `CCNCCc1ccc(C2c3ccc(O)cc3CCC2c2ccc(C(C)C)cc2)cc1` (stereo not shown) [LA-31, 5-(4-(2-(Ethylamino)ethyl)phenyl)-6-(4-isopropylphenyl)-5,6,7,8-tetrahydronaphthalen-2-ol], for which the IC50 is < 1 nM.
For `CCCNCCc1ccc(C2c3ccc(O)cc3CCC2c2ccc(C(C)C)cc2)cc1` (stereo not shown) [LA-32, 6-(4-Isopropylphenyl)-5-(4-(2-(propylamino)ethyl)phenyl)-5,6,7,8-tetrahydronaphthalen-2-ol], the IC50 was < 1 nM.
On to `CC(C)c1ccc(C2CCc3cc(O)ccc3C2c2ccc(CCNCC3CC3)cc2)cc1` (stereo not shown) [LA-33, 5-(4-(2-((Cyclopropylmethyl)amino)ethyl)phenyl)-6-(4-isopropylphenyl)-5,6,7,8-tetrahydronaphthalen-2-ol], for which the IC50 was < 1 nM.

A further test has as its system E2-induced increase in uterine weight in immature rats. Kind of test: Immature Rat Uterine Assay. The format is in vivo, Sprague-Dawley rat. Conditions: oral dose of 3 mg/kg in combination with E2 (0.01 mg/kg), once daily for three consecutive days. As for the experimental part:
Immature Rat Uterine Assay
Sprague-Dawley rat pups were weaned at 19 days of age, randomized into groups (n=6), and administered vehicle (aqueous 20% HPBCD, 10% PEG400 in H2O), E2 (0.01 mg/kg), test compounds (0.1 mg/kg-3 mg/kg) in combination with E2 (0.01 mg/kg), either by subcutaneous injection or by oral gavage, once daily for three consecutive days. Twenty-four hours after the final dose, all animals were killed by carbon dioxide inhalation. Body weights and wet uterine weights were recorded for each animal. GraphPadPrism 6.0 software was used to analyze data.
In the case of `Cc1ccccc1-c1c(F)c2c3cn[nH]c3ccc2n1Cc1ccc(CCNCCCF)cc1` [Compound D-102, 3-Fluoro-N-(4-((8-fluoro-7-(o-tolyl)pyrrolo[3,2-e]indazol-6(3H)-yl)methyl)phenethyl)propan-1-amine], the wet uterine weight entry was “suppressed wet uterine weight to baseline”.
